Experimental data: US20250304526A1, “HIGH AND MULTIPLE REDOX POTENTIAL, STABLE, AND SOLUBLE BIS-DIARYLAMINE DERIVATIVES AND USES THEREOF” (University of Kentucky Research Foundation, priority 2024, published 2025)

Test: Solubility determination in pure acetonitrile by mass measurement
Assay type: physicochemical
Description: The solubility of the compounds in pure acetonitrile was determined by the mass measurement method described previously. Saturated solutions of each compound were prepared and filtered to remove any undissolved material. Afterwards, 3 mL of each solution were taken and added to previously weighed vials (the measurement was repeated three times for each solution, i.e. 3 vials for each solution). The vials were then stored open in a nitrogen-filled glove box to allow the slow evaporation of the solvent. After 10 days, acetonitrile was evaporated from all vials, leaving only the previously dissolved solid. The vials were then re-weighed and the mass of the solid was determined by subtracting the mass of the respective empty vial. The concentration of the compound was calculated from the mass of the dissolved solid and the volume of the sample placed into the vial.
The solubilities of 1-4 were examined in pure CH3CN using the mass measurement method.

- solubility: virtually insoluble
SMILES: c1ccc(N(c2ccccc2)c2ccc(N(c3ccccc3)c3ccccc3)cc2)cc1 [A, N,N,N′,N′-Tetraphenyl-1,4-phenylenediamine, reference compound]
